Assay: mn = molality of the nth substance listed, in mol/kg
Settings: 101 kPa, Liquid; for speed of sound: Sing-around technique in a fixed-path interferometer; for molar conductivity: digital conductivity meter

O=P([O-])([O-])[O-].[Na+].[Na+].[Na+] [trisodium phosphate] + O
Settings | mass density [kg/m3] | molar conductivity [S·m2/mol] | speed of sound [m/s]
283.15 K, m1 = 0.0026 | – | 0.0382 | –
283.15 K, m1 = 0.0039 | – | 0.0361 | –
283.15 K, m1 = 0.0053 | – | 0.0348 | –
283.15 K, m1 = 0.0089 | 1001.51 | – | 1450.7
283.15 K, m1 = 0.0105 | 1001.84 | 0.0306 | 1451.2
283.15 K, m1 = 0.0116 | 1002.06 | – | 1451.5
283.15 K, m1 = 0.0132 | 1002.38 | 0.0293 | 1452
283.15 K, m1 = 0.0183 | 1003.44 | 0.0275 | 1453.4
283.15 K, m1 = 0.0234 | 1004.45 | 0.0259 | 1455
283.15 K, m1 = 0.0342 | 1006.62 | 0.0234 | 1457.8
283.15 K, m1 = 0.045 | 1008.77 | 0.0218 | 1460.7
283.15 K, m1 = 0.0563 | 1011 | 0.0211 | 1463.6
283.15 K, m1 = 0.0662 | 1012.94 | 0.0197 | 1466.1
283.15 K, m1 = 0.0767 | – | 0.0192 | –
283.15 K, m1 = 0.088 | 1017.25 | 0.0186 | 1471.7
283.15 K, m1 = 0.0968 | 1018.97 | 0.0179 | 1473.9
283.15 K, m1 = 0.1086 | 1021.25 | 0.0178 | 1476.8
283.15 K, m1 = 0.1133 | 1022.18 | 0.0173 | 1477.9
283.15 K, m1 = 0.1296 | 1025.36 | 0.0166 | 1482
283.15 K, m1 = 0.141 | 1027.58 | 0.0161 | 1484.8
283.15 K, m1 = 0.1515 | 1029.56 | 0.0158 | 1487.3
283.15 K, m1 = 0.1638 | 1031.95 | 0.0159 | 1490.3
283.15 K, m1 = 0.1755 | 1034.17 | 0.0155 | 1493.1
283.15 K, m1 = 0.1868 | 1036.39 | 0.0153 | 1496
283.15 K, m1 = 0.1954 | 1037.96 | 0.0154 | 1498
283.15 K, m1 = 0.2224 | 1043.23 | 0.0145 | 1504.6
283.15 K, m1 = 0.2333 | 1045.32 | 0.0143 | 1507.2
283.15 K, m1 = 0.2509 | 1048.59 | 0.0142 | 1511.4
288.15 K, m1 = 0.0026 | – | 0.0395 | –
288.15 K, m1 = 0.0039 | – | 0.0369 | –
288.15 K, m1 = 0.0053 | – | 0.0363 | –
288.15 K, m1 = 0.0089 | 1000.88 | – | 1469
288.15 K, m1 = 0.0105 | 1001.2 | 0.0325 | 1469.5
288.15 K, m1 = 0.0116 | 1001.42 | – | 1469.8
288.15 K, m1 = 0.0132 | 1001.74 | 0.0318 | 1470.2
288.15 K, m1 = 0.0183 | 1002.77 | 0.0292 | 1471.6
288.15 K, m1 = 0.0234 | 1003.77 | 0.0281 | 1473.1
288.15 K, m1 = 0.0342 | 1005.91 | 0.0253 | 1475.8
288.15 K, m1 = 0.045 | 1008.04 | 0.0236 | 1478.6
288.15 K, m1 = 0.0563 | 1010.23 | 0.0223 | 1481.5
288.15 K, m1 = 0.0662 | 1012.15 | 0.0216 | 1483.9
288.15 K, m1 = 0.0767 | – | 0.021 | –
288.15 K, m1 = 0.088 | 1016.4 | 0.0199 | 1489.3
288.15 K, m1 = 0.0968 | 1018.1 | 0.0196 | 1491.5
288.15 K, m1 = 0.1086 | 1020.35 | 0.0191 | 1494.3
288.15 K, m1 = 0.1133 | 1021.28 | 0.0188 | 1495.4
288.15 K, m1 = 0.1296 | 1024.4 | 0.0181 | 1499.3
288.15 K, m1 = 0.141 | 1026.61 | 0.0175 | 1502.1
288.15 K, m1 = 0.1515 | 1028.56 | 0.0174 | 1504.5
288.15 K, m1 = 0.1638 | 1030.93 | 0.0174 | 1507.4
288.15 K, m1 = 0.1755 | 1033.12 | 0.0168 | 1510.1
288.15 K, m1 = 0.1868 | 1035.32 | 0.0165 | 1512.9
288.15 K, m1 = 0.1954 | 1036.87 | 0.0162 | 1514.8
288.15 K, m1 = 0.2224 | 1042.08 | 0.0153 | 1521.3
288.15 K, m1 = 0.2333 | 1044.14 | 0.0152 | 1523.9
288.15 K, m1 = 0.2509 | 1047.38 | 0.015 | 1527.9
293.15 K, m1 = 0.0026 | – | 0.0406 | –
293.15 K, m1 = 0.0039 | – | 0.0379 | –
293.15 K, m1 = 0.0053 | – | 0.038 | –
293.15 K, m1 = 0.0089 | 999.952 | – | 1485.1
293.15 K, m1 = 0.0105 | 1000.27 | 0.0342 | 1485.6
293.15 K, m1 = 0.0116 | 1000.49 | – | 1486
293.15 K, m1 = 0.0132 | 1000.8 | 0.0333 | 1486.3
293.15 K, m1 = 0.0183 | 1001.83 | 0.0309 | 1487.7
293.15 K, m1 = 0.0234 | 1002.81 | 0.0297 | 1489.2
293.15 K, m1 = 0.0342 | 1004.92 | 0.0264 | 1491.8
293.15 K, m1 = 0.045 | 1007.02 | 0.0249 | 1494.5
293.15 K, m1 = 0.0563 | 1009.2 | 0.0236 | 1497.3
293.15 K, m1 = 0.0662 | 1011.09 | 0.0227 | 1499.7
293.15 K, m1 = 0.0767 | – | 0.0218 | –
293.15 K, m1 = 0.088 | 1015.29 | 0.0209 | 1504.9
293.15 K, m1 = 0.0968 | 1016.97 | 0.0206 | 1507
293.15 K, m1 = 0.1086 | 1019.2 | 0.0201 | 1509.7
293.15 K, m1 = 0.1133 | 1020.11 | 0.0198 | 1510.8
293.15 K, m1 = 0.1296 | 1023.21 | 0.0189 | 1514.6
293.15 K, m1 = 0.141 | 1025.39 | 0.0185 | 1517.3
293.15 K, m1 = 0.1515 | 1027.32 | 0.0182 | 1519.7
293.15 K, m1 = 0.1638 | 1029.67 | 0.0181 | 1522.5
293.15 K, m1 = 0.1755 | 1031.84 | 0.0176 | 1525.2
293.15 K, m1 = 0.1868 | 1034.01 | 0.0172 | 1527.8
293.15 K, m1 = 0.1954 | 1035.55 | 0.0171 | 1529.7
293.15 K, m1 = 0.2224 | 1040.71 | 0.0162 | 1536
293.15 K, m1 = 0.2333 | 1042.76 | 0.016 | 1538.5
293.15 K, m1 = 0.2509 | 1045.97 | 0.0157 | 1542.4
298.15 K, m1 = 0.0026 | – | 0.0415 | –
298.15 K, m1 = 0.0039 | – | 0.0401 | –
298.15 K, m1 = 0.0053 | – | 0.0392 | –
298.15 K, m1 = 0.0089 | 998.77 | – | 1499.3
298.15 K, m1 = 0.0105 | 999.088 | 0.0359 | 1499.8
298.15 K, m1 = 0.0116 | 999.3 | – | 1500.2
298.15 K, m1 = 0.0132 | 999.611 | 0.0347 | 1500.5
298.15 K, m1 = 0.0183 | 1000.62 | 0.0328 | 1501.8
298.15 K, m1 = 0.0234 | 1001.6 | 0.031 | 1503.3
298.15 K, m1 = 0.0342 | 1003.68 | 0.028 | 1505.8
298.15 K, m1 = 0.045 | 1005.76 | 0.0263 | 1508.5
298.15 K, m1 = 0.0563 | 1007.91 | 0.025 | 1511.1
298.15 K, m1 = 0.0662 | 1009.78 | 0.0239 | 1513.4
298.15 K, m1 = 0.0767 | – | 0.0231 | –
298.15 K, m1 = 0.088 | 1013.95 | 0.0221 | 1518.5
298.15 K, m1 = 0.0968 | 1015.61 | 0.0217 | 1520.6
298.15 K, m1 = 0.1086 | 1017.82 | 0.0211 | 1523.3
298.15 K, m1 = 0.1133 | 1018.73 | 0.0207 | 1524.3
298.15 K, m1 = 0.1296 | 1021.79 | 0.0199 | 1528
298.15 K, m1 = 0.141 | 1023.96 | 0.0195 | 1530.7
298.15 K, m1 = 0.1515 | 1025.87 | 0.0193 | 1532.9
298.15 K, m1 = 0.1638 | 1028.19 | 0.0191 | 1535.7
298.15 K, m1 = 0.1755 | 1030.35 | 0.0186 | 1538.3
298.15 K, m1 = 0.1868 | 1032.5 | 0.018 | 1540.8
298.15 K, m1 = 0.1954 | 1034.03 | 0.0178 | 1542.7
298.15 K, m1 = 0.2224 | 1039.14 | 0.0169 | 1548.8
298.15 K, m1 = 0.2333 | 1041.17 | 0.0168 | 1551.2
298.15 K, m1 = 0.2509 | 1044.36 | 0.0163 | 1555
303.15 K, m1 = 0.0026 | – | 0.0409 | –
303.15 K, m1 = 0.0039 | – | 0.0404 | –
303.15 K, m1 = 0.0053 | – | 0.0398 | –
303.15 K, m1 = 0.0089 | 997.355 | – | 1511.7
303.15 K, m1 = 0.0105 | 997.668 | 0.0367 | 1512.1
303.15 K, m1 = 0.0116 | 997.879 | – | 1512.5
303.15 K, m1 = 0.0132 | 998.187 | 0.0355 | 1512.8
303.15 K, m1 = 0.0183 | 999.189 | 0.0333 | 1514.1
303.15 K, m1 = 0.0234 | 1000.15 | 0.0318 | 1515.6
303.15 K, m1 = 0.0342 | 1002.22 | 0.029 | 1518
303.15 K, m1 = 0.045 | 1004.28 | 0.0274 | 1520.6
303.15 K, m1 = 0.0563 | 1006.41 | 0.0259 | 1523.2
303.15 K, m1 = 0.0662 | 1008.27 | 0.0248 | 1525.5
303.15 K, m1 = 0.0767 | – | 0.0238 | –
303.15 K, m1 = 0.088 | 1012.39 | 0.023 | 1530.5
303.15 K, m1 = 0.0968 | 1014.04 | 0.0226 | 1532.4
303.15 K, m1 = 0.1086 | 1016.24 | 0.0216 | 1535
303.15 K, m1 = 0.1133 | 1017.13 | 0.0215 | 1536.1
303.15 K, m1 = 0.1296 | 1020.18 | 0.0208 | 1539.6
303.15 K, m1 = 0.141 | 1022.32 | 0.0201 | 1542.2
303.15 K, m1 = 0.1515 | 1024.22 | 0.0198 | 1544.4
303.15 K, m1 = 0.1638 | 1026.53 | 0.0198 | 1547.1
303.15 K, m1 = 0.1755 | 1028.66 | 0.0193 | 1549.6
303.15 K, m1 = 0.1868 | 1030.8 | 0.0186 | 1552.1
303.15 K, m1 = 0.1954 | 1032.32 | 0.0182 | 1553.9
303.15 K, m1 = 0.2224 | 1037.39 | 0.0173 | 1559.9
303.15 K, m1 = 0.2333 | 1039.41 | 0.0171 | 1562.2
303.15 K, m1 = 0.2509 | 1042.57 | 0.0167 | 1565.9

— the NIST ThermoML archive (doi:10.1016/j.fluid.2008.01.004)
